Results taken from BindingDB's records for patent US11028085 (Nimbus Saturn, 2021).

Biological target: Mitogen-activated protein kinase kinase kinase kinase 1 (Homo sapiens, UniProt Q92918)
Test: Biochemical Enzyme Assay
Protocol: HPK1 biochemical enzyme assay: HPK1 enzyme inhibition was measured using a microfluidic mobility shift assay. […] Test compounds were titrated in ten point curves (top final assay concentration […]), and preincubated with enzyme/substrate mix for 30 min prior to initiation of the reaction by addition of ATP (1 mM final concentration) and substrate ([…] final concentration; Carna Biosciences) diluted in assay buffer supplemented by MgCl2 (final assay concentration of 5 mM). Following 60 min incubation at RT, the reaction was terminated by addition of 60 µl/well termination buffer (Carna Biosciences) and signal determination using a Caliper EZ Reader (Perkin Elmer, UK).

Chain of Mitogen-activated protein kinase kinase kinase kinase 1 (Q92918 whole entry): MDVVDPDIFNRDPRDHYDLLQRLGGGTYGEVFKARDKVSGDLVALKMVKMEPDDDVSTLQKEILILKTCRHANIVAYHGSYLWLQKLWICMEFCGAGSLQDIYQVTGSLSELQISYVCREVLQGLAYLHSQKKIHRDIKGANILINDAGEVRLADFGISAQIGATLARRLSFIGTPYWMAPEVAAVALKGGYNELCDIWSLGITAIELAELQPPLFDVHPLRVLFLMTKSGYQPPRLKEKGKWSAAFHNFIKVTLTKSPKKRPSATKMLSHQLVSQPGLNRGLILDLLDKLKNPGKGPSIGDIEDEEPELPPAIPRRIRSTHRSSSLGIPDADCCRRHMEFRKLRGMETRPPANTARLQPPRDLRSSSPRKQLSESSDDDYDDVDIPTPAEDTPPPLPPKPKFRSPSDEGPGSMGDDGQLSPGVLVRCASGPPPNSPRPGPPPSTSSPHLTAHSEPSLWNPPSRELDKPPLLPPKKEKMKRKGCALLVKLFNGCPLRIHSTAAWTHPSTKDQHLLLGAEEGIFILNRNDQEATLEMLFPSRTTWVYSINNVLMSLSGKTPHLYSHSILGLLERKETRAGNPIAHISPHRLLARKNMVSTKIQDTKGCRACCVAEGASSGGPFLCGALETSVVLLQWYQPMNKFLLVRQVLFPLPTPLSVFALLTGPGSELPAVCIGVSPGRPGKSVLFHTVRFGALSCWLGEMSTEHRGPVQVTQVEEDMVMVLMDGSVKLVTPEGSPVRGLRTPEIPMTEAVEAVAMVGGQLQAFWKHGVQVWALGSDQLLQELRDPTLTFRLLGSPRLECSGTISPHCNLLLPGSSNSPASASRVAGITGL

| IC50 | SMILES |
| --- | --- |
| in the range around 550 nM | CCOc1c(C#N)cnn2c(-c3ccc(Nc4ccc(N5CCC(O)CC5)cn4)c4c3CNC4=O)cnc12 [US11028085, Compound I-185] |
| < 100 nM | CN1CC(c2ccn3c(-c4ccc(Nc5ccc(N6CCC(O)CC6)cc5)c5c4CNC5=O)cnc3c2)C1 [US11028085, Compound I-411] |
